Reference: paper PMC4432228, “Tight regulation of the unfolded protein sensor Ire1 by its intramolecularly antagonizing subdomain” (Journal of Cell Science, 2015)

System: MBP–CSSR (core stress-sensing region of yeast Ire1)
Assay: In vitro competition assay for peptide binding to the CSSR (fluorescence anisotropy of ΔEspP–FAM)
Set-up: species or system Saccharomyces cerevisiae
Details: Fig. 6C
Protocol: Fig. 6. Two-hybrid and in vitro interaction of the CSSR with various peptides. (A,B) A yeast two-hybrid analysis was performed using the CSSR and its mutants as prey. The Subregion I 60-amino-acid portion (Sub-I), Segment 4 (Seg4; six tandem repeat), GGGSS (12 tandem repeat), Segments 1–3 (Segs1–3; amino acids 32–61 of yeast Ire1; two tandem repeat), Segments 4–6 (Segs4–6; amino acids 62–91 of yeast Ire1; two tandem repeat), the NUCR of human or mouse PERK (hPERK or mPERK), the Top2 IDR (Top2; two tandem repeat) and the San1 IDR (San1) were used as bait. Tester cell cultures were serially diluted tenfold, spotted on agar plates, incubated for 2–4 days and photographed. WT, wild type. (C) A fluorescently labeled peptide DEspP–FAM (10 µM final concentration) was mixed with MBP–CSSR (5 µM final concentration) and a competitor peptide [Segment (Seg) 2–6] and measured for fluorescence anisotropy. The resulting values from triplicate assays (mean±s.d.) are normalized to that for the no competitor peptide condition.
Next, we performed an in vitro competition assay to monitor the affinity of the Subregion I segments for the CSSR. A recombinant CSSR protein tagged with the maltose-binding protein (MBP–CSSR) was expressed in Escherichia coli and purified with amylose resin ([Kimata et al., 2007]). […]

“Segment 4: Untagged competitor peptide NH2-KKKA-[10 amino acids of Segment 4 of yeast Ire1 Subregion I]-AAKKKK-COOH (H-KKKAIPAPRTTEGLAAKKKK-OH)” was tested, and the “Affinity of capture by the CSSR relative to other Subregion I segments” value (in vitro competition analysis) was “higher affinity than for other segments” and the “Reduction of ΔEspP–FAM fluorescence anisotropy by competitor peptide (reduced association between ΔEspP–FAM and MBP–CSSR)” value (ΔEspP–FAM 10 µM, MBP–CSSR 5 µM, elution buffer A (50 mM HEPES pH 8.0), 30 min incubation, 25°C, triplicate assays, normalized to no competitor) was “more effectively than the other segments did”.
